Target: T1, ABCE1 (Saccharolobus solfataricus, UniProt Q980K5, L353Y)
T1 construct: gene SSO0287; recombinant in E. coli (pSA4 plasmid), C-terminal His6 tag; FeS cluster domain kept
Test: Malachite Green ATPase assay (phosphate release)
Type: biochemical
Settings: 2 mM ATP, 2.5 mM MgCl2, 150 mM NaCl, Hepes pH 7.5, 80 °C; no ribosomes

With `Nc1ncnc2c1ncn2[C@@H]1O[C@H](COP(=O)(O)OP(=O)(O)OP(=O)(O)O)[C@@H](O)[C@H]1O` [ATP] the “ATP turnover per ABCE1” value was “ATPase activity of ABCE1^L353Y (Appendix Fig S3) were comparable to wild type”.

Source: publication PMC7196836, “Molecular analysis of the ribosome recycling factor ABCE1 bound to the 30S post‐splitting complex” (The EMBO Journal, 2020)
